{"source": "paper PMC11945486", "about": "“TAS1R2/TAS1R3 Single-Nucleotide Polymorphisms Affect Sweet Taste Receptor Activation by Sweeteners: The SWEET Project” (Nutrients, 2025)", "biological_target": "T1, human TAS1R2-WT/TAS1R3-T716M (Homo sapiens, UniProt Q7RTX0+Q8TE23, T716M)", "T1 construct": "expressed in transfected cells; host or cells: HEK293T stably expressing Gα16gust44", "T1 sequence (Q8TE23 20-839)": "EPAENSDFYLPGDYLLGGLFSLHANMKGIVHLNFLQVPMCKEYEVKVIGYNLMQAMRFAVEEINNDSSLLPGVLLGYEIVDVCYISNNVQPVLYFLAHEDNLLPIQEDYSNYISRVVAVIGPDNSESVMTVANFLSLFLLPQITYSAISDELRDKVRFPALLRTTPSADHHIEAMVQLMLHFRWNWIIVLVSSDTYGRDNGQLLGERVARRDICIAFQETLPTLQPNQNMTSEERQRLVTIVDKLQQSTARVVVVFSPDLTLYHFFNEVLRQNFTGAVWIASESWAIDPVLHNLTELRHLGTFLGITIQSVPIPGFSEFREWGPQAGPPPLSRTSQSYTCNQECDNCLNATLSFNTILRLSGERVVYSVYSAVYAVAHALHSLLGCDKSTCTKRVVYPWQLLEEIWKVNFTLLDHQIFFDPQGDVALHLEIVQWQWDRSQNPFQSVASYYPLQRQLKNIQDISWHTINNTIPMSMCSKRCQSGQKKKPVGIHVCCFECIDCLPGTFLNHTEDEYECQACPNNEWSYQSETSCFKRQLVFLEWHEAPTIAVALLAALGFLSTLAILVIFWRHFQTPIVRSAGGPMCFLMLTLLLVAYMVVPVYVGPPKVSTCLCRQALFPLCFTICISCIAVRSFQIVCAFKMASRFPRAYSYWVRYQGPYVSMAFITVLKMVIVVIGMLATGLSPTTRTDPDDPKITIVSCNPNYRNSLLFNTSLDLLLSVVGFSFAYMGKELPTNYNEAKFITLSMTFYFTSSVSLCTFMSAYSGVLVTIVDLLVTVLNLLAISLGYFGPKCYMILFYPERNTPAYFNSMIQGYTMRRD", "T1 sequence (Q7RTX0 21-852 T716M)": "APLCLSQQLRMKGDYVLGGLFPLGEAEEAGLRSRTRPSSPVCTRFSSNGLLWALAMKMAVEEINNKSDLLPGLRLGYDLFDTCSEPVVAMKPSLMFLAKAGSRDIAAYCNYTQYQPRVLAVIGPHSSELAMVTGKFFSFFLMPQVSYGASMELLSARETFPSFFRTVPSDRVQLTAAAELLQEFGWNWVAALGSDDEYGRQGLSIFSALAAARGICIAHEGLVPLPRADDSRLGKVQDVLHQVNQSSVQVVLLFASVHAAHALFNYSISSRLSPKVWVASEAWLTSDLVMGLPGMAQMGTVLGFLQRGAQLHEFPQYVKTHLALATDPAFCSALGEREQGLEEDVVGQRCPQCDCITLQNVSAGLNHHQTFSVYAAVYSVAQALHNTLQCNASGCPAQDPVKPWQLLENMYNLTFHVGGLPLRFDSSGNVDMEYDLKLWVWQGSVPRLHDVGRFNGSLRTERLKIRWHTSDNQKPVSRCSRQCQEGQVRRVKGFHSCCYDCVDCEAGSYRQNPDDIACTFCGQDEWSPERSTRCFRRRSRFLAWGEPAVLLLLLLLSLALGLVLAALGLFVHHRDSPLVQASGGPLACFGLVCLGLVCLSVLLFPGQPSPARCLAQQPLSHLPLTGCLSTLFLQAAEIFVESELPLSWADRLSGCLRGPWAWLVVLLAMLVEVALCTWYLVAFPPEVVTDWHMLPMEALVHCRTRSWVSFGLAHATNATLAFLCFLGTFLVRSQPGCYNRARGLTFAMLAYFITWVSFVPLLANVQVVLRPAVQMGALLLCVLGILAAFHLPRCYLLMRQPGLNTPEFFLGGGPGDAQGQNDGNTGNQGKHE", "assay": "Calcium mobilisation assay, TAS1R2-WT with TAS1R3 variant T716M", "type": "cell-based", "settings": "for Max ΔF/F0: maximal signal amplitude", "text": "The coding sequences for TAS1R2 and TAS1R3 were commercially synthesised, and the human codon was optimised for expression in human cells. The coding sequences of human TAS1R2 and TAS1R3 were subcloned and inserted into the mammalian expression vectors pcDNA6/myc-HisA and pcDNA4/myc-HisA (Invitrogen; Thermo Fisher Scientific; Illkirch, France) between the EcoRI and NotI restriction sites, generating the plasmids pcDNA6-TAS1R2 and pcDNA4-TAS1R3, respectively. To increase protein expression in mammalian cells, an upstream start codon was used, which was a sequence called MAX, corresponding to the QBI SP163 element also described in pcDNA4-HisMax (Invitrogen; Thermo Fisher Scientific; Illkirch, France). To measure the expression level of the receptor by immunohistochemistry, we used the FLAG sequence ([…]) in the C-terminal position, which encodes the FLAG tag epitope. SNP variants of TAS1R2 and TAS1R3 were constructed based on […], respectively, using site-directed mutagenesis (Genewiz; Leipzig, Germany).\nThe HEK293T cells were kindly provided by Jay P. Slack (Givaudan Flavors Corporation; Cincinnati, OH, USA). HEK293T cells stably transfected with Gα16gust44 [43, 67] were seeded in poly-D-lysine-coated clear-bottom black 96-well plates (0.35 × 10^5 cells/well) in high-glucose DMEM supplemented with 2 mM GlutaMAX, 10% dialysed foetal bovine serum with penicillin/streptomycin and G418 (400 μg/mL) at 37 °C and 6.3% CO2 in a humidified atmosphere as previously reported. […] As a negative control, HEK293T cells were mock-transfected with the empty expression vector. After a further 24 h of incubation, the HEK293T cells were washed with C1 buffer (130 mM NaCl, 5 mM KCl, 10 mM HEPES pH 7.4 and 2 mM CaCl2). The 96-well plates containing the cells were then stimulated with sweet-tasting compounds. […] Different concentration ranges were tested depending on the sweet compound injected. The Ca^2+ changes were expressed as fractional changes in fluorescent light intensity: ΔF/F = (F − F0)/F0, where F was the fluorescent light intensity at each point, and F0 was the value of emitted fluorescent light prior to stimulus application. To calculate dose–response relationships, the changes in fluorescence upon stimulus application were averaged, mock-subtracted and baseline-corrected. The dose–response data obtained were adjusted using a 4-parameter logistic equation. The half-maximal effective concentrations (EC50 values) and maximal signal amplitudes were calculated using SigmaPlot software (version 15.0) (Systat Software; San Jose, CA, USA).\nFor in vitro calcium mobilisation assay performed on hTAS1R2-SNPs, hTAS1R3-SNPs and mTAS1R3-I60T, 6 to 7 concentrations were tested for each sweet compound, plus buffer alone. All concentration–receptor combinations were measured in duplicate, and each experiment was repeated at least 4 times (8 wells/concentration). Results were expressed for each concentration as ΔF/F mean ± SEM and represented as dose–response curves.", "note": "Like-named read-outs stand apart in the source and are kept apart here. No end group written: not given here.", "data": [{"molecule": "CC1=CC(=O)NS(=O)(=O)O1", "note": "[Acesulfame K, acesulfame K]", "values": [{"measurement": "R1 = Variant EC50/WT EC50", "value": 1.2}, {"measurement": "Max ΔF/F0", "value": "0.30 ± 0.01"}, {"measurement": "EC50", "setting": "read-out: EC50", "value": "739 ± 72", "unit": "µM"}]}, {"molecule": "O=S(=O)(O)NC1CCCCC1", "note": "[Cyclamate, cyclamate]", "values": [{"measurement": "EC50", "setting": "read-out: EC50", "value": "1860 ± 45", "unit": "µM"}]}, {"molecule": "C[C@H](CC[C@@H](O[C@@H]1O[C@H](CO[C@@H]2O[C@H](CO)[C@@H](O)[C@H](O)[C@H]2O)[C@@H](O)[C@H](O)[C@H]1O[C@@H]1O[C@H](CO)[C@@H](O)[C@H](O)[C@H]1O)C(C)(C)O)[C@H]1CC[C@@]2(C)[C@@H]3CC=C4[C@@H](CC[C@H](O[C@@H]5O[C@H](CO[C@@H]6O[C@H](CO)[C@@H](O)[C@H](O)[C@H]6O)[C@@H](O)[C@H](O)[C@H]5O)C4(C)C)[C@]3(C)[C@H](O)C[C@]12C", "note": "[Mogroside V, mogroside V]", "values": [{"measurement": "R1 = Variant EC50/WT EC50", "value": 1.2}, {"measurement": "Max ΔF/F0", "value": "1.01 ± 0.01"}, {"measurement": "EC50", "setting": "read-out: EC50", "value": "36.4 ± 1", "unit": "µM"}]}, {"molecule": "COc1ccc(CCC(=O)c2c(O)cc(O[C@@H]3O[C@H](CO)[C@@H](O)[C@H](O)[C@H]3O[C@@H]3O[C@@H](C)[C@H](O)[C@@H](O)[C@H]3O)cc2O)cc1O", "note": "[NHDC, neohesperidin dihydrochalcone]", "values": [{"measurement": "R1 = Variant EC50/WT EC50", "value": 1.1}, {"measurement": "Max ΔF/F0", "value": "0.84 ± 0.09"}, {"measurement": "EC50", "setting": "read-out: EC50", "value": "55.4 ± 18.4", "unit": "µM"}]}, {"molecule": "COC(=O)[C@H](Cc1ccccc1)NC(=O)[C@H](CC(=O)O)NCCC(C)(C)C", "note": "[Neotame]", "values": [{"measurement": "R1 = Variant EC50/WT EC50", "value": 1.1}, {"measurement": "Max ΔF/F0", "value": "0.54 ± 0.01"}, {"measurement": "EC50", "setting": "read-out: EC50", "value": "1.3 ± 0.06", "unit": "µM"}]}, {"molecule": "C=C(C)[C@@H]1CC=C(/C=N/O)CC1", "note": "[Perillartine, perillartine]", "values": [{"measurement": "R1 = Variant EC50/WT EC50", "value": 1.6}, {"measurement": "Max ΔF/F0", "value": "1.73 ± 0.33"}, {"measurement": "EC50", "setting": "read-out: EC50", "value": "21.6 ± 11.4", "unit": "µM"}]}, {"molecule": "C=C1C[C@@]23CC[C@H]4[C@@](C)(CCC[C@@]4(C)C(=O)O[C@@H]4O[C@H](CO)[C@@H](O)[C@H](O[C@@H]5O[C@H](CO)[C@@H](O)[C@H](O)[C@H]5O)[C@H]4O[C@@H]4O[C@H](CO)[C@@H](O)[C@H](O)[C@H]4O)[C@@H]2CC[C@]1(O[C@@H]1O[C@H](CO)[C@@H](O)[C@H](O[C@@H]2O[C@H](CO)[C@@H](O)[C@H](O)[C@H]2O)[C@H]1O[C@@H]1O[C@H](CO)[C@@H](O)[C@H](O)[C@H]1O)C3", "note": "[Rebaudioside M, rebaudioside M]", "values": [{"measurement": "R1 = Variant EC50/WT EC50", "value": 0.8}, {"measurement": "Max ΔF/F0", "value": "1.10 ± 0.06"}, {"measurement": "EC50", "setting": "read-out: EC50", "value": "30.7 ± 4", "unit": "µM"}]}, {"molecule": "OC[C@H]1O[C@H](O[C@]2(CCl)O[C@H](CCl)[C@@H](O)[C@@H]2O)[C@H](O)[C@@H](O)[C@H]1Cl", "note": "[Sucralose]", "values": [{"measurement": "R1 = Variant EC50/WT EC50", "value": 1.5}, {"measurement": "Max ΔF/F0", "value": "0.47 ± 0.02"}, {"measurement": "EC50", "setting": "read-out: EC50", "value": "161 ± 14", "unit": "µM"}]}, {"molecule": "brazzein (QDKCKKVYENYPVSKCQLANQCNYDCKLDKHARSGECFYDEKRNLQCICDYCEY; ends and bridges not checked; cysteine pairing not given here; UniProt P56552 1-54, looked up) [sweet-tasting protein obtained by recombinant production using the yeast Pichia pastoris]", "values": [{"measurement": "R1 = Variant EC50/WT EC50", "value": 1.0}, {"measurement": "EC50", "setting": "brazzein", "value": "112.6 ± 13.6", "unit": "µg/mL"}, {"measurement": "Max ΔF/F0", "value": "0.94 ± 0.04"}]}, {"molecule": "thaumatin", "values": [{"measurement": "R1 = Variant EC50/WT EC50", "value": 1.0}, {"measurement": "Max ΔF/F0", "value": "0.76 ± 0.04"}, {"measurement": "EC50", "setting": "read-out: EC50", "value": "10 ± 0.5", "unit": "µM"}]}]}
